Experiment [1] deals with IB3-1 cells. In words: Fura-2 microscope calcium measurement in IB3-1 cells. It counts as cell-based, human. The note with it: for effect of preincubation on the spiperone-induced Ca2+ increase: inhibitor given before spiperone; for spiperone Ca2+ response after prior addition of the analog: analog added prior to spiperone; for increase of intracellular Ca2+ / Ca2+ release: spiperone analogs, solution not stated. An excerpt: . A microscope-based fluorescence Ca^2+ measurement system was utilized in this study. First IB3-1 cells grown on a coverglass were bathed in the ECaT Ringer's which was used for the screen. […] In order to ascertain the origin of this sustained increase the experiment was repeated except with Ca^2+-free ECaT Ringer's solution, (See FIG. 8).
Using normal Ringers, a study was undertaken to determine whether the source of the increase in cytoplasmic Ca^2+ was indeed the endoplasmic reticulum (ER). As part of the normal Ca^2+ transit system across the ER, the Ca^2+-ATPase pumps Ca^2+ from the cytosol to the ER uphill against the concentration gradient. Other channels continue to cycle Ca^2+ from ER back to cytosol. Thapsigargin blocks the Ca^2+-ATPase, inhibiting the uphill uptake. […]
Phospholipase C (PLC) is an intracellular enzyme that participates in calcium signaling pathways. […]. There are two major molecules that activate PLC pathways to release Ca^2+ from the ER. One is the G-protein coupled receptors. The second is the protein tyrosine kinase […]. […]. […] (FIG. 12G is the summary data of genistein treatment.) Lavendustin A is another protein tyrosine kinase inhibitor. […].
(§1) Cells were seeded on the collagen-coated cover glass for 48 h. Cell Ca^2+ was measured with a dual excitation wavelength microscope system. Fura-2 fluorescence was excited at 340 nm and 380 nm with xenon light. Fluorescence was measured at 510 nm emission wavelength. Data was processed and analyzed using IPLab 4.0 software. Fluorescence data of each experiment were normalized to the individual basal fluorescence value ΔF/F0=(F−F0)/F0 to bring all the response curves to the same pretreatment starting point.

Experiment [2] has as its system Calu-3 cells. In words: Short-circuit current measurement (Cl- secretion), Calu-3 monolayers. It counts as cell-based, human. The note with it: for effect of channel blocker on spiperone-induced sustained Cl- release / effect of channel blocker on spiperone-induced transient Cl-: amiloride present; for Cl- current (short circuit current): normal Ringer's, Na+ absorption blocked with amiloride. How it is done:
(§2) An experiment was carried out to establish that the spiperone-induced increase of Ca^2+ would produce an increase in Cl^− transport relevant to CF, and that it would do so in CF relevant epithelial cells. Calu-3 and CFBE41o-cell monolayers were cultured on permeable filter support and “short circuit current” measurements were performed to evaluate the current produced by Cl^− in these cells.
(§3) Na^+ is a positively charged ion and its absorption would interfere with the short circuit measurement for Cl^− secretion. Therefore, in normal Ringer's solution, Na^+ absorption across the cell membrane was blocked with amiloride. Cell monolayers were then exposed to the two relevant compounds: niflumic acid (NFA), which is a non-selective CaCCs blocker or to CFTRinh-172, which is a specific CFTR blocker.
(§4) Calu-3 and CFBE41o-cells were cultured on Snapwell inserts until they formed a tight monolayer as monitored by measuring the transepithelial resistance. The bottom of the monolayer was taken out, mounted on the Ussing chamber and buffered by the testing solutions. The short-circuit current was measured by a VCC MC6 multichannel voltage/current clamp (Physiologic Instruments, San Diego, Calif.). Data were recorded and analyzed by Acquire and Analyze software.

For experiment [3] the following is noted: 24 weeks of treatment, phase III trial, inhaled; cited from earlier work.
Experiment [4] has as its system CFBE41o- cells. In words: Short-circuit current measurement (Cl- secretion), CFBE41o- monolayers. It counts as cell-based, human. The note with it: for Cl- secretion (short circuit current): normal Ringer's, amiloride. The procedure:
as §2, §3, §4

Experiment [5] has as its system IB3-1 cells. In words: Compound screening for calcium enhancers (Fura-2 fluorescence plate reader).
Description: Thus for the ECaT Ringers, we eliminated Na^+ from the solution and replaced it completely by N-methyl-D-glucamine (NMDG) to maintain the solution osmolality to favor Ca^2+ for entry through the P2X receptor. We were searching for compounds that activate the P2X receptor channel or other Ca^2+ entry channels, as well as compounds that bind to membrane or cellular proteins which are involved in intracellular Ca^2+ regulation.
Compounds were selected as potential hits if their change of fluorescence ratio fell within 3 SD of those obtained for zinc (ratio), and larger than that recorded for DMSO (ratio) +3SD. The average Z factor of all 25 plates is 0.6 for the 15 min detection. Hits were solely based on the change in the fluorescence ratio. Any compound that was highly auto-fluorescent was not considered further.
We further evaluated 37 hits manually using the Fluorescence Plate Reader system. […] Following this initial vetting process, the half-maximal effective concentration (EC50) was determined of each of the remaining 19 molecules. […] Compound Library: Library MSSP (Microsource Discovery Inc) was our source for compounds for the primary screening. The compounds were known bioactive compounds and natural products and their derivatives. The library contained 2,000 compounds on twenty-five 96-well plates, with 80 compounds tested per plate. In the master plates, each compound was suspended in DMSO at a concentration of 10 mM. A set of 96-well plates of the library in a concentration of 2 mM in DMSO was made prior to the screening.
Screening Procedure: The screening was performed by the Johns Hopkins University High Throughput Biology Center Chemcore. […] The fluorescence ratio was measured in ECaT Ringer's solution by a Tecan Safire Fluorescence Plate Reader. […] The fluorescence ratio was measured again immediately after adding the compounds. The final fluorescence detection was done 15 min after the second detection in order to find compounds which stimulate the sustained Ca^2+ increase.
A further experiment has as its target 5-HT2 receptor (Homo sapiens, UniProt P28223). The note with it: antagonists; cited from earlier work.
A further experiment addresses dopamine D2 receptor (Homo sapiens, UniProt P14416). The note with it: cited from earlier work.
Another experiment has as its system 5-HT receptor. The note with it: canine tracheal epithelia, another study; cited from earlier work.
The subject of experiment [6] is Calu-3 cells. The experiment is described as follows: Fura-2 microscope calcium measurement in Calu-3 cells. It counts as cell-based, human. The conditions noted are these: Calu-3 non-CF; Ca2+-free Ringers. The procedure:
as §1

In experiment [7] the test system is CFBE41o- cells. In words: Fura-2 microscope calcium measurement in CFBE41o- cells. The note with it: CFBE41o- CF; Ca2+-free Ringers. It is filed as cell-based, human. The procedure: as §1
The next experiment concerns NHBE. The experiment is described as follows: Fura-2 microscope calcium measurement in NHBE primary cells. It counts as cell-based, human. The conditions noted are these: NHBE primary culture; Ca2+-free Ringers. How it is done:
as §1

Experiment [8] has as its system nasal epithelia of wild-type (C57B1/6) mice. The experiment is described as follows: Mouse nasal potential difference, wild-type C57B1/6 mice. The note with it: after elimination of mucosal Cl-.
Description: Animals: The studies conducted were approved by the Johns Hopkins University Animal Care and Use Committee. […] Nasal Potential Difference (NPD): All mice were anesthetized with an IP injection of a ketamine and xylazine mixture (100 mcg/10 mcg per gram of body weight). […] Briefly, a high impedance voltmeter (World Precision Instruments, Sarasota, Fla.) was connected by silver-chloride pellet electrodes to an exploring nasal bridge and a reference subcutaneous bridge. The nasal bridge, a single polyethylene tube (PE10, 0.28 mm ID, Clay-Adams, B D, Sparks, Md.) was pulled to one-half its original diameter and cut at a 45 degree angle. The tubing was marked and inserted 5 mm from the tip of the nare. A paper tape flag indicated position and orientation of the tip. The subcutaneous bridge was a 25 GA Butterfly® (Abbott, Chicago, Ill.) needle containing Ringer's solution inserted subcutaneously in the right abdominal wall. Each solution was warmed to 37° C. and perfused to the nare for at least 3 minutes at 5 micro liters per minute using a perfusion pump. Following the procedure, the oral cavity was gently suctioned of perfusate and the mice were recovered to their cages. Voltmeter data (mV) was recorded by a PowerLab A/D converter connected to a PC running Chart software at 20 samples per second (AD Instruments, Colorado Springs, Colo.). […]
Experiment [9] deals with nasal epithelium of CFKO mice. In words: Mouse nasal potential difference, CF (double transgenic CFKO) mice.
Description: In order to allow for later hyperpolarization from chloride secretion, their nasal epithelia were perfused with baseline Ringers with amiloride added to block the epithelial Na^+ channel. For the next perfusion, the Cl^− was removed by substituting Na^+ gluconate in the baseline Ringer's solution (FIG. 8), then removed Cl^− from the mucosa by perfusing the nare with that Ringer's.
Nasal Potential Difference (NPD): All mice were anesthetized with an IP injection of a ketamine and xylazine mixture (100 mcg/10 mcg per gram of body weight). […] Briefly, a high impedance voltmeter (World Precision Instruments, Sarasota, Fla.) was connected by silver-chloride pellet electrodes to an exploring nasal bridge and a reference subcutaneous bridge. The nasal bridge, a single polyethylene tube (PE10, 0.28 mm ID, Clay-Adams, B D, Sparks, Md.) was pulled to one-half its original diameter and cut at a 45 degree angle. The tubing was marked and inserted 5 mm from the tip of the nare. A paper tape flag indicated position and orientation of the tip. The subcutaneous bridge was a 25 GA Butterfly® (Abbott, Chicago, Ill.) needle containing Ringer's solution inserted subcutaneously in the right abdominal wall. Each solution was warmed to 37° C. and perfused to the nare for at least 3 minutes at 5 micro liters per minute using a perfusion pump. Following the procedure, the oral cavity was gently suctioned of perfusate and the mice were recovered to their cages. Voltmeter data (mV) was recorded by a PowerLab A/D converter connected to a PC running Chart software at 20 samples per second (AD Instruments, Colorado Springs, Colo.). A minimum of 400 data points (˜20 seconds) were used to calculate the mean voltage values.

Molecules are shown by their SMILES.

Sequence of 5-HT2 receptor (P28223 whole entry): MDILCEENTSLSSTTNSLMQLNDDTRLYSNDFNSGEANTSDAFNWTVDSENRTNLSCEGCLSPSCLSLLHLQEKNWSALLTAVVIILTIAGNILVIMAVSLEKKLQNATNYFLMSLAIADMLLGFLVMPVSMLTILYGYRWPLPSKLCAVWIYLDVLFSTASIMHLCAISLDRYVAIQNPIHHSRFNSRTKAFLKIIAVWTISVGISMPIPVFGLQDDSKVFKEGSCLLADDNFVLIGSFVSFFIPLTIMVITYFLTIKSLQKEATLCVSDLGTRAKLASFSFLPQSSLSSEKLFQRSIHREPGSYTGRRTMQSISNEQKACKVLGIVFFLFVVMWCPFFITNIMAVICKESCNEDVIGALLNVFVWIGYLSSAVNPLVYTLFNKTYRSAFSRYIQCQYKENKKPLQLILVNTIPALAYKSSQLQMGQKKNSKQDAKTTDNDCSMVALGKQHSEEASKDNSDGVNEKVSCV
Sequence of dopamine D2 receptor (P14416 whole entry, species assumed): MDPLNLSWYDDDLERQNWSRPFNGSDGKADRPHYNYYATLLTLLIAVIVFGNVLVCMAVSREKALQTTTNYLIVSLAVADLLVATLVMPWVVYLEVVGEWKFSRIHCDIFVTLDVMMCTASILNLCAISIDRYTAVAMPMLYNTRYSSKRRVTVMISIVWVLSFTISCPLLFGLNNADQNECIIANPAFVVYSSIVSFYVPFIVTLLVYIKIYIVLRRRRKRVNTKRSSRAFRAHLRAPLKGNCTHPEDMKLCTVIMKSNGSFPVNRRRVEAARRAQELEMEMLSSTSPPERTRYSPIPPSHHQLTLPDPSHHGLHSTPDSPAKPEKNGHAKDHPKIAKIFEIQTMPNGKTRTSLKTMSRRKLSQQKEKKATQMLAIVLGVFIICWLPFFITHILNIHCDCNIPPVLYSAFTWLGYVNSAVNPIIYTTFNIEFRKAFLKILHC

In the case of `NCCOB(c1ccccc1)c1ccccc1` [2APB], the “effect on the spiperone induced Ca2+ release from ER” value in the experiment on IB3-1 cells [1] (100 μM, 30 minutes incubation, data not shown) was “totally blocked”.

`O=C(O)c1ccc(/C=C2\SC(=S)N(c3cccc(C(F)(F)F)c3)C2=O)cc1` [CFTRinh-172]: in the experiment with Calu-3 cells [2], the “effect of channel blocker on spiperone-induced sustained Cl- release” value is reported as “totally blocked” and the “effect of channel blocker on spiperone-induced transient Cl-” value is given as “reduced”.

Turning to `Nc1ccn([C@H]2C[C@H](O)[C@@H](COP(=O)(O)OP(=O)(O)OP(=O)(O)OP(=O)(O)OC[C@H]3O[C@@H](n4ccc(=O)[nH]c4=O)[C@H](O)[C@@H]3O)O2)c(=O)n1` [Denufosol, denufosol], in experiment [3], the “improvement in lung function” value was 2.5%.

On to `O=C(O)c1cccnc1Nc1cccc(C(F)(F)F)c1` [NFA, niflumic acid], for which, in the experiment with Calu-3 cells [2], the “effect of channel blocker on spiperone-induced sustained Cl- release” value is “totally blocked” and the “effect of channel blocker on spiperone-induced transient Cl-” value is “reduced”. For the same molecule, the “effect of CaCC blocker on spiperone's effect on Cl- secretion” value in the experiment with CFBE41o- cells [4] is on record as “reduced significantly”.

On to `Cc1ccc(C(=O)Nc2ccc(S(=O)(=O)O)c3cc(S(=O)(=O)O)cc(S(=O)(=O)O)c23)cc1NC(=O)c1cccc(NC(=O)Nc2cccc(C(=O)Nc3cc(C(=O)Nc4ccc(S(=O)(=O)O)c5cc(S(=O)(=O)O)cc(S(=O)(=O)O)c45)ccc3C)c2)c1` [Suramin, suramin], for which the “effect of preincubation on the spiperone-induced Ca2+ increase” value in the experiment with IB3-1 cells [1] is on record as “did not reduce”.

Take `COc1ccc2c(c1)CC[C@@H]1[C@@H]2CC[C@]2(C)[C@@H](NCCCCCCN3C(=O)C=CC3=O)CC[C@@H]12` [U73122]: in the experiment on IB3-1 cells [1], the “effect of preincubation on the spiperone-induced Ca2+ increase” value was “diminished”.

With `COc1ccc2c(c1)CC[C@@H]1[C@@H]2CC[C@]2(C)C(NCCCCCCN3C(=O)CCC3=O)CC[C@@H]12` (stereo partly shown) [U73433], the “effect of preincubation on the spiperone-induced Ca2+ increase” value in the experiment with IB3-1 cells [1] is “did not”.

In the case of `[Zn]` [Zinc, zinc], the “increase in cytoplasmic Ca2+ (change in fluorescence ratio)” value in the experiment on IB3-1 cells [5] (ECaT Ringer's, plate reader) is “long lasting increase in cytoplasmic Ca^2+”.

For `O=c1c(-c2ccc(O)cc2)coc2cc(O)cc(O)c12` [genistein], the “effect of preincubation on the spiperone-induced Ca2+ increase” value in the experiment with IB3-1 cells [1] is “partially blocked”.

`O=C(CCCN1CCC(O)(c2ccc(Cl)cc2)CC1)c1ccc(F)cc1` [haloperidol]: the “spiperone Ca2+ response after prior addition of the analog” value in the experiment with IB3-1 cells [1] (Ca2+-free normal Ringer's) is recorded as “spiperone was still able to stimulate a transient increase in Ca^2+”. Further, the “increase of intracellular Ca2+ / Ca2+ release” value in the experiment with IB3-1 cells [1] is “did not release Ca^2+”. Besides, the “effect on spiperone-stimulated transepithelial Cl- currents” value in the experiment with Calu-3 cells [2] (analog given before spiperone) is given as “did not prevent spiperone from stimulating transepithelial Cl^− currents”. Also, in the experiment on Calu-3 cells [2], the “Cl- current (short circuit current)” value is reported as “did not stimulate the Cl^− current”.

Regarding `O=C(c1ccc(F)cc1)C1CCN(CCn2c(=O)[nH]c3ccccc3c2=O)CC1` [ketanserin], in the experiment with IB3-1 cells [1] (Ca2+-free normal Ringer's), the “spiperone Ca2+ response after prior addition of the analog” value is listed as “spiperone was still able to stimulate a transient increase in Ca^2+”. Further, in the experiment with IB3-1 cells [1], the “increase of intracellular Ca2+ / Ca2+ release” value is on record as “did not increase intracellular Ca^2+”. For the same molecule, the “affinity for the 5-HT2 receptor” value on 5-HT2 receptor is listed as “high affinity”. Moreover, the “antagonism of the dopamine receptor” value on dopamine D2 receptor is “very weakly antagonistic”. Also, the “effect on 5-HT effects (inhibited Na+ absorption, stimulated Cl- secretion)” value with 5-HT receptor is “blocked those effects”.

For the molecule `O=C(O)c1cc(N(Cc2ccccc2O)Cc2cc(O)ccc2O)ccc1O` [lavendustin A], the “effect on the increase in Ca2+ induced by spiperone” value in the experiment with IB3-1 cells [1] (10 μM, data not shown) is “significantly diminished”.

On to `O=C(CCCN1CCC2(CC1)C(=O)NCN2c1ccccc1)c1ccc(F)cc1` [spiperone], for which the “change in cytoplasmic Ca2+” value was “only a transient increase in cytoplasmic Ca^2+” in the experiment on IB3-1 cells [1] (Ca2+-free ECaT Ringer's), “only a transient increase in Ca^2+” in the experiment on IB3-1 cells [1] (Ca2+-free normal Ringer's), “sustained increase in Ca^2+” in the experiment on IB3-1 cells [1] (ECaT Ringer's) and “only a transient increase in Ca^2+” in the experiment with IB3-1 cells [1] (normal Ringer's). Besides, in the experiment with IB3-1 cells [1] (cells treated with spiperone before thapsigargin, normal Ringers), the “cytosolic Ca2+ response to thapsigargin after spiperone” value was “no increase in cytosolic Ca^2+”. The “change in Ca2+” value in the experiment with Calu-3 cells [6], in the experiment with CFBE41o- cells [7] and in the experiment on NHBE was “transient increase in Ca^2+” each time. Also, the Cl- secretion entry with Calu-3 cells [2] (20 μM, monolayers) is on record as “stimulated Cl^− secretion”; in the experiment with CFBE41o- cells [4] (20 μM, monolayers) it was “stimulated Cl^− secretion”. Further, the “amount of spiperone required to induce Cl- secretion” value in the experiment on Calu-3 cells [2] ("our study", airway epithelial cells) is listed as “at least 1 μmol”. Also, the “Cl- current (short circuit current)” value in the experiment on Calu-3 cells [2] is “a transient and then a sustained Cl^− current”. Besides, in the experiment on CFBE41o- cells [4], the “Cl- secretion (short circuit current)” value is “only a transient Cl^− secretion”. In the experiment with CFBE41o- cells [4] (subsequent to thapsigargin), the “Cl- transit on spiperone applied after thapsigargin” value is reported as “failed to stimulate any additional Cl^− transit”. The “affinity for the 5-HT2 receptor” value on 5-HT2 receptor was “high affinity”. In addition, on dopamine D2 receptor (antagonists), the “affinity for the dopamine D2 receptor” value is recorded as “high affinity”. The “nasal potential difference / Cl- conductance” value in experiment [8] is “did not induce any further hyperpolarization”; in [9] (1 μM in Zero Cl- baseline Ringer's, after amiloride, nasal perfusion), “hyperpolarized the mouse nasal potential significantly”; in [9] (subsequent increase to 20 μM) it was “did not boost Cl^− conductance”. Further, the nasal potential difference entry in experiment [9] (1 μM, after 19 min of sustained perfusion) is on record as “remained significantly hyperpolarized”. Moreover, the “spiperone concentrations at which the Ca2+ stimulation is reduced” value in the experiment with IB3-1 cells [5] (higher concentrations, inhibition) was above 50 µM. In the experiment on IB3-1 cells [5] (lower concentrations, activation), the “spiperone concentrations that stimulate cytoplasmic Ca2+” value was “less than 50 μM”.

Turning to `C/C=C(/C)C(=O)O[C@H]1C(C)=C2[C@H]([C@@H]1OC(=O)CCCCCCC)[C@@](C)(OC(C)=O)C[C@H](OC(=O)CCC)[C@@]1(O)[C@H]2OC(=O)[C@@]1(C)O` [thapsigargin], in the experiment on IB3-1 cells [1] (normal Ringer's), the “change in cytoplasmic Ca2+” value is “net increase in Ca^2+ in the cytosol”. The “Cl- secretion (short circuit current)” value in the experiment on CFBE41o- cells [4] is “transient increase in Cl^− secretion”.

Source of the values: patent publication US8664237B2 (The Johns Hopkins University, priority 2008, dated 2014).
